Patent US6576620B2, “Method of identifying partial adenosine A1 receptor agonists” (CV Therapeutics, Inc., priority 1999, dated 2003)
Like-named read-outs stand apart in the source and are kept apart here.

Columns and labels:
[1] = test system: guinea pig isolated heart; assay: A-V nodal conduction time / S-H interval, isolated perfused heart; conditions: for EC50: Cavia porcellus; for S-H interval Efficacy: Table 5, 2759 = CVT-2759
Description: This method evaluates the potencies of compounds to cause coronary vasodilation (A2A AdoR response) and to prolong A-V nodal conduction time (A1 AdoR response).
Rats and guinea pigs, of either sex weighing from 230 to 260 grams and 300 to 350 grams, respectively, were used in this study. Animals were anesthetized by peritoneal injection of a cocktail containing ketamine and xylazine (ketamine 100 mg, xylazine 20 mg/ml). The chest was opened and the heart quickly removed. The heart was briefly rinse in ice-cold Krebs-Henseleit solution (see below), and the aorta cannulated. The heart was then perfused at a flow rate of 10 ml/min with modified Krebs-Henseleit (K-H) solution containing NaCl 117.9, KCl 4.5, CaCl2 2.5, MgSO4 1.18, KH2PO4 1.18, pyruvate 2.0 mmol. The K-H solution (pH 7.4) was gassed continuously with 95% O2 and 5% CO2 and warmed to 35±0.50° C. The heart was electrically paced at a fixed cycle length of […] (250 beats/min) using a bipolar electrode place on the left atrium. The electrical stimuli were generated by a Grass stimulator (Model S48, W. Warwick, R.I.) and delivered through a Stimuli Isolation Unit (Model SIU5, Astro-Med, Inc., NY) as square-wave pulses of 3-msec in duration and amplitude of at least twice the threshold intensity.
A1 adenosine receptor-mediated depression of A-V nodal conduction time (negative dromotropic effect) was measured. Atrial and ventricular surface electrograms in rats and His bundle electrogram in guinea pigs, were recorded during constant atrial pacing.
The effects of compounds on coronary conductance (A2A effect) and atrioventricular conduction time or stimulus-to-His-bundle (S-H) interval (A1 effect) was then determined. Hearts were instrumented for continuous recording of coronary perfusion pressure (A2A response) and atrioventricular (A-V) conduction time or S-H interval (A1 response). In each experiment, concentration-response relationship of compounds to increase coronary conductance and to prolong A-V conduction time or S-H interval was determined. After control measurements of CPP and A-V conduction time or S-H interval were made, progressive higher concentrations of the compound studied was administered until maximal coronary vasodilation and A-V nodal conduction time or S-H interval prolongation were achieved.
Guinea pigs (Hartley) of either sex weighing 300-350 g were anaesthetized with methoxyflurane and killed by decapitation. The chest was cut open and the heart was removed quickly and rinsed in ice-cold modified Krebs-Henseleit (K-H) solution. The contents of the modified K-H solution were (in mM): NaCl 117.9, KCl 4.8, CaCl2 2.5, MgSO2 1.18, KH2PO4 1.2, Na2 EDTA 0.5, ascorbic acid 0.14, dextrose 5.5, pyruvic acid (sodium salt) 2.0, and NaHCO3 25. The K-H solution was continuously gassed with 95% oxygen and 5% CO2, and the pH was adjusted to a value of 7.4. To perfuse the heart by the Langendorff method, the transected aorta was slid onto a glass cannula and secured by a ligature. Retrograde perfusion of the aorta was initiated immediately at a constant flow of 10 ml min-′ with modified K-H solution warmed to 36.0±0.5° C. A side port in the cannula was used to connect the perfusion line to a Gould pressure transducer for measurement of coronary perfusion pressure. Coronary perfusion pressure was continuously recorded on a strip chart (Gould RS3400, Cleveland, Ohio) throughout each experiment. Coronary conductance (in ml min^−1 mmHg^−1) was calculated as the ratio of coronary flow (10 ml min^−1) to perfusion pressure (mm Hg). To facilitate the exit of fluid from the left ventricle, the leaflets of the mitral valve were trimmed with fine spring-handled scissors. When appropriate, hearts were paced at a constant rate using external electrodes. […]

[2] = test system: guinea pig isolated heart; assay: Monophasic action potential duration, isolated heart; conditions: bolus (100 μl) of 1 mM adenosine
Description: Signals were considered adequate if they were stable for at least 5-10 min and the amplitudes exceeded 10 mV. The data were digitized at 2 kHz by a DT-2801A digitizing board (Data Translation, Marlboro, Mass.) and were saved for analysis using the Snapshot data acquisition program (Snapshot Storage Scope, HEM Data Corp., Southfield, Mich.). The duration of the atrial and ventricular monophasic action potentials was measured from onset of depolarization to either 50 or 90% of repolarization.

[3] = test system: guinea pig isolated heart; conditions: previous study (12); cited from earlier work
Adenosine A1 receptor [4] = assay: A1-agonist stimulated [35S]GTPγS binding to G proteins; format: biochemical; conditions: for GTPγS: Table 1, compounds of Example 2, normalized to the full agonist CPA; for GTPγS (% of CPA): Table 5
Description: At the end of the incubation, each suspension was filtered and the retained radioactivity determined as described above.

Adenosine A1 receptor [5] = target: T1, Adenosine A1 receptor (Cavia porcellus, UniProt P47745); assay: Affinity binding (Ki) of Tables 4 and 5
T1 construct: from tissue; host or cells: guinea pig forebrain membranes
T1 sequence (P47745 1-326): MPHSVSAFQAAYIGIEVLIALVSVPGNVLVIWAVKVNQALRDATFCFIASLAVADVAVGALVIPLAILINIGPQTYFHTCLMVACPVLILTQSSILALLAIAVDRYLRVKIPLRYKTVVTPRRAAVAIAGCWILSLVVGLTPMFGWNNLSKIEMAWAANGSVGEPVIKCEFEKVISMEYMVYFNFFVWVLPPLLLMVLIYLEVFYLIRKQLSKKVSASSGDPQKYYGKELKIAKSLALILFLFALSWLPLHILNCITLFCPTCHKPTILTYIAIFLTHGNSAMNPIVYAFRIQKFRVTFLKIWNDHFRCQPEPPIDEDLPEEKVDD
Description: The binding affinity of a compound is evaluated in a competitive binding assay.

[6] = Table 4, A-V nodal conduction time, read-out: EC50 A-V NCT
[7] = Table 5, S-H interval, read-out: EC50

Row | SMILES | adenosine concentration causing second-degree AV block ([1]; absence of Compound 6 of Example 2) [µM] | duration of atrial monophasic action potential at 90% of repolarization [2] [ms] | maximal increase of coronary conductance [3] [ml min^−1 mmHg^−1] | GTPγS (Adenosine A1 receptor [4]) [%] | GTPγS (% of CPA) (Adenosine A1 receptor [4]) | Ki (Adenosine A1 receptor [5]; Table 4, read-out: Ki low) [nM] | Ki (Adenosine A1 receptor [5]; Table 5, read-out: Ki) [nM] | EC50 [1, 6] [nM] | S-H interval Efficacy [1] | EC50 [1, 7] [nM]
1 | Nc1ncnc2c1ncn2[C@@H]1O[C@H](CO)[C@@H](O)[C@H]1O [Adenosine] | 6 | 22 ± 5 | 0.15±0.02 |  |  |  |  |  |  | 
2 | CCCNC(=S)OC[C@H]1O[C@@H](n2cnc3c(N[C@@H]4CCOC4)ncnc32)[C@H](O)[C@@H]1O [Compound 49 of Example 2, 2-{6-[((3R)oxolan-3-yl)amino]purin-9-yl}(4S,2R,3R,5R)-5-{[(propylamino)thioxomethoxy]methyl}oxolane-3,4-diol] |  |  |  | 89 | 89 % of CPA | 900 | 895 | 1400 | Partial | 
3 | O=C(NC1CCCC1)OC[C@H]1O[C@@H](n2cnc3c(N[C@@H]4CCOC4)nc(Cl)nc32)[C@H](O)[C@@H]1O [Compound 69 of Example 2, [(5-{6-[((3R)oxolan-3-yl)amino]-2-chloropurin-9-yl}(3S,2R,4R,5R)-3,4-dihydroxyoxolan-2-yl)methoxy]-N-cyclopentylcarboxamide] |  |  |  | 50 | 69 % of CPA |  | > 1460 |  | Partial (= 2759) | 
4 | CNC(=S)OC[C@H]1O[C@@H](n2cnc3c(N[C@@H]4CCOC4)nc(Cl)nc32)[C@H](O)[C@@H]1O [Compound 81 of Example 2] |  |  |  |  | 84 % of CPA | 500 | 1110 | 600 | Partial | 530
5 | CCCNC(=S)OC[C@H]1O[C@@H](n2cnc3c(N[C@@H]4CCOC4)nc(Cl)nc32)[C@H](O)[C@@H]1O [Compound 83 of Example 2, 2-{6-[((3R)oxolan-3-yl)amino]-2-chloropurin-9-yl}(4S,2R,3R,5R)-5-{[(propylamino)thioxomethoxy]methyl}oxolane-3,4-diol] |  |  |  |  | 77 % of CPA |  | 443 |  | Partial | 610
